Measurements published in PMC7968666, “The pharmacokinetics and drug-drug interactions of ivermectin in Aedes aegypti mosquitoes” (PLoS Pathogens, 2021).
Several values for one entry are separate records, joined by “and”; a condition that tells them apart may be missing. Equal values may be shown once. Entries after “also recorded” stand apart in the source; their conditions may differ. Read-outs that look alike come from different tables or passages of the source.

Experiments:
Aedes aegypti mosquitoes [1] = experiment: Drug effect on mosquito fecundity (eggs laid after 96 h); assay type: in vivo
Procedure: The mixtures were rotated at room temperature for 30 min to ensure a uniform drug distribution (Rotator Genie, Scientific Industries, Bohemia, USA). […] Twelve hours later, the tap water was also removed to starve the mosquitoes. […] The mosquitoes were then feeding from blood through the netting and the Parafilm membrane. […] The photoperiod of the climate chamber and the insectary were synchronised. […] The engorged mosquitoes were either directly frozen at -20°C or returned to the climate chamber for certain time periods to assess the PK. […] Blood feeding was done as described above. […] In contrast to the PK experiments, the mosquitoes had unlimited access to water because a moistened oviposition substrate was inserted into the paper cup. Fecundity was defined as the total number of eggs laid after 96 h. […] The filter paper served as the oviposition substrate. The cotton wool was soaked with fresh water and covered by a new filter paper after 48, 72, and 96 h post-treatment. After the assay, the eggs were left to mature for 24 h in the insectary. […] R Foundation for Statistical Computing, http://www.R-project.org, Vienna, Austria). Normality was assessed using the Shapiro-Wilk test. For normally distributed data (mortality, fecundity), group differences were assessed with one-way ANOVA testing, and, where applicable, followed up with Tukey's test. Group differences in fertility (not normally distributed) were evaluated with Kruskal-Wallis one-way analysis of variance, and Wilcoxon rank sum testing as post-hoc.

[2] = Mosquito dosing experiments: ivermectin recovered from single mosquitoes directly after membrane blood feeding (LC-MS/MS); assay type: in vivo, Aedes aegypti
Procedure: Drug stock solutions were prepared in DMSO and added to blank human blood at a ratio of 1:1000 so that the DMSO content was less than 0.2%. The mixtures were rotated at room temperature for 30 min to ensure a uniform drug distribution (Rotator Genie, Scientific Industries, Bohemia, USA). The sugar water within the mosquito cages was replaced by tap water 24 h prior to the PK experiments. Twelve hours later, the tap water was also removed to starve the mosquitoes. On the day of the PK experiment, 25–35 starved, female mosquitoes with an age of 6–7 days post-emergence were transferred with a mouth aspirator into 2 dl paper cups that were sealed with a piece of mosquito netting. […] A petri dish (35 mm x 10 mm, BD, Franklin Lakes, USA) was filled with 2.55 ml of warm blood, sealed with a piece of Parafilm (Parafilm M sealing film, Huberlab AG, Aesch, Switzerland) stretched over the rim and turned upside down on top of the paper cup. The mosquitoes were then feeding from blood through the netting and the Parafilm membrane. The feeding was conducted in a climate chamber (HPP110, Memmert GmbH + Co.KG, Schwabach, Germany) at 26° C, 70% humidity, and 50% light intensity. The photoperiod of the climate chamber and the insectary were synchronised. After 20 min of feeding, the cups were placed on ice to immobilise the mosquitoes and separate the fully engorged ones. […]
The first aim was to evaluate the variability of the blood uptake by the mosquitoes. […] The strength of the association was assessed using a linear regression model and its correlation coefficient R^2 using GraphPad prism software 9.0.0 (San Diego, USA). […]
Mosquito extracts were analysed using a modular ultra-high-pressure liquid chromatography (UPLC) system from Shimadzu (Kyoto, Japan) connected to an API 5500 QTRAP tandem mass spectrometer (AB Sciex, Massachusetts, USA). A previously developed and validated LC-MS/MS method for the quantification of ivermectin in human plasma and blood was used for the analyses. […]

Aedes aegypti mosquitoes [3] = experiment: Drug effect on mosquito fertility (percentage of eggs hatched); assay type: in vivo
Procedure: The mixtures were rotated at room temperature for 30 min to ensure a uniform drug distribution (Rotator Genie, Scientific Industries, Bohemia, USA). […] Twelve hours later, the tap water was also removed to starve the mosquitoes. […] The mosquitoes were then feeding from blood through the netting and the Parafilm membrane. […] The photoperiod of the climate chamber and the insectary were synchronised. […] The engorged mosquitoes were either directly frozen at -20°C or returned to the climate chamber for certain time periods to assess the PK. […] Blood feeding was done as described above. […] In contrast to the PK experiments, the mosquitoes had unlimited access to water because a moistened oviposition substrate was inserted into the paper cup. […] Any hatched larva was counted and transferred to a rearing tray with a plastic pipette. The fertility was calculated as the percentage of eggs hatched. […] R Foundation for Statistical Computing, http://www.R-project.org, Vienna, Austria). Normality was assessed using the Shapiro-Wilk test. For normally distributed data (mortality, fecundity), group differences were assessed with one-way ANOVA testing, and, where applicable, followed up with Tukey's test. Group differences in fertility (not normally distributed) were evaluated with Kruskal-Wallis one-way analysis of variance, and Wilcoxon rank sum testing as post-hoc.

Aedes aegypti mosquitoes [4] = conditions: IVM 0.1, KCZ 5, RIF 10, RTV 10, PBO 10 μg/ml in blood; for Mosquito survival (%): 50 mosquitoes
[5] = 4 days, IVM 0.1, KCZ 5, RIF 10, RTV 10, PBO 10 μg/ml in blood, 50 mosquitoes
[6] = 100 eggs laid 48-96 h post-treatment, IVM 0.1, KCZ 5, RIF 10, RTV 10, PBO 10 μg/ml in blood

CCC(C)C1OC2(CCC1C)CC1CC(CC=C(C)C(OC3CC(OC)C(OC4CC(OC)C(O)C(C)O4)C(C)O3)C(C)C=CC=C3COC4C(O)C(C)=CC(C(=O)O1)C34O)O2 (centres unmarked) [ivermectin]
Mosquito fecundity, Batch 1, mg eggs (4 days) (Aedes aegypti mosquitoes [1]; [5]): 18.22 mg eggs
Mosquito fecundity, Batch 2, mg eggs (4 days) (Aedes aegypti mosquitoes [1]; [5]): 8.65 mg eggs
Mosquito fecundity, Batch 3, mg eggs (4 days) (Aedes aegypti mosquitoes [1]; [5]): 16.69 mg eggs
Effect on number of mosquito eggs (fecundity) compared to blank blood (Aedes aegypti mosquitoes [1]; four days, IVM 0.1, RTV 10, PBO 10 μg/ml in blood): reduced the number of mosquito eggs
Saturation of uptake over the dose range ([2]; 0.01–1 μg/ml ivermectin in blood): no saturation was observed; also recorded: without showing saturation
Dosing precision (%CV) of ivermectin, adjusted for mosquito weight ([2]; 0.01–1 μg/ml ivermectin in blood, n = 30 mosquitoes per dose): less than 13.4%
Ivermectin concentration per mosquito weight ([2]; ivermectin dose 0.01 µg/ml in blood, directly after feeding, single mosquitoes 1-30): 0.007 ng/mg and 0.009 ng/mg and 0.008 ng/mg and 0.010 ng/mg and 0.011 ng/mg
Mosquito fertility, Batch 1, hatching rate (Aedes aegypti mosquitoes [3]; [6]): 1%
Mosquito fertility, Batch 2, hatching rate (Aedes aegypti mosquitoes [3]; [6]): 0%
Mosquito fertility, Batch 3, hatching rate (Aedes aegypti mosquitoes [3]; [6]): 1%
Effect on fertility of mosquito eggs (Aedes aegypti mosquitoes [3]; ivermectin 0.1 μg/ml in blood): sterilised almost all mosquito eggs
Mosquito survival (%) (Aedes aegypti mosquitoes [4]; 0 days post feeding): 100%
Mosquito survival (%) (Aedes aegypti mosquitoes [4]; 1 day post feeding): 100%
four-day mosquito mortality (Aedes aegypti mosquitoes [4]; four days, 3 batches of 50): 17%
